Data reported in patent US12310941B2, “Agent for protection of blood brain spinal cord barrier” (National University Corporation Hokkaido University, priority 2020, dated 2025).

Experiments:
[1] = system: Human brain vascular endothelial cells (hCMEC/D3); experiment: Cell viability of human brain vascular endothelial cells under hydrogen peroxide stress; format: cell-based; details: 450 μM hydrogen peroxide, 6 hours; PrestoBlue; stressed cells without test compound about 0.2; FIG. 17
Description: Human brain vascular endothelial cells (hCMEC/D3, Sigma) were seeded to 5,000 cells/cm^2 on a 96-well plate (Falcon cell culture 96-well multi-well plate, with flat bottom lid) coated with 0.1 mg/ml collagen type 1 (Sigma-Aldrich), and cultured at 37° C. for 24 hours with 5% CO2 using Endothelial Cell Growth Medium (PromoCell, Germany). Bismuth citrate, bismuth subnitrate, bismuth tartrate, or zinc sulfate dissolved in saline, and hydrogen peroxide at a final concentration of 450 μM were added to the medium and incubated for 6 hours to simultaneously stress the cells and treat them with test compounds. The cell viability after loading stress was measured using PrestoBlue (registered trademark) Cell Viability Reagent (Life Technologies).
The cell viability is illustrated in FIG. 17 when the cell viability of the control without hydrogen peroxide stress is 1 and the cell-free is 0. […] Note that the survival rate of the cells subjected to hydrogen peroxide stress and not added the test compound was about 0.2.

[2] = system: spinal cord crush injury rats; experiment: Histological evaluation in spinal cord crush injury model; format: in vivo, Lewis rats; details: 8 weeks after injury, vs vehicle; for reactive astrocyte area (GFAP positive area): FIG. 6
Description: Crush injuries were created in the fifth cervical cord (C5) of Lewis rats (female, 8 to 14 weeks old, n=14 to 18/group) under anesthesia by applying a pressure of 200 kdyn using an IH impactor. For seven consecutive days from the day of injury creation, 380 to 420 μL of the test compound dissolved in saline or DMSO, or vehicle was intraperitoneally administered. The daily doses were 20 mg/kg body weight of papaverine, 1 mg/kg body weight of mubritinib, and 1 mg/kg body weight of brexpiprazole. After the rats were kept for 8 weeks from injury creation, histological evaluation and sensory function evaluation for pathological conditions at the chronic stage of the spinal cord injury were performed. After perfusion and fixation of the rats in the same manner as in Example 3, the 2 cm long spinal cord centering the injury site was dissected. The dissected spinal cords were immersed in PBS containing 30% sucrose for overnight and then transected horizontally to prepare frozen sections having a thickness of 30 μm. After washing the sections with TBS, blocking was performed in a blocking buffer (TBS containing 5% normal horse serum and 0.25% Triton X-100) for 1 hour at room temperature. After washing with PBS, the sections were reacted with a primary antibody at 4° C. overnight. As the primary antibody, purified anti-Glial Fibrillary Acidic Protein (GFAP) Antibody (Biolegend) and Anti-NeuN Antibody, clone A60 (Millipore) were diluted with TBS containing 5% normal horse serum and 0.25% Triton X-100 at 1:1000 and at 1:500, respectively, and used. After washing with TBS, the sections were reacted with a secondary antibody at room temperature for 3 hours. As the secondary antibody, both Alexa Fluor 594 donkey anti-mouse IgG (Jackson ImmunoResearch) and Alexa Fluor 594 donkey anti-chicken IgG (Jackson ImmunoResearch) were diluted with TBS containing 3% normal horse serum and 0.25% Triton X-100 at 1:500, and used. After washing with TBS, the sections were observed using BZ-X710 (KEYENCE) to obtain fluorescent images. For the section of the central part of the spinal cord of the rat, the cavity area of the injured part, the area of the region immunostained with the GFAP antibody, and the number of cells immunostained with the NeuN antibody present on the lines 1.5 mm rostal and caudal from the center of the injury were measured. GFAP is a marker for reactive astrocytes and NeuN is a marker for neurons. Immediately after creating crush injuries in the fifth cervical cord (C5) of Lewis rats (female, 8 to 14 weeks old, n=8/group) under anesthesia in the same manner as in Example 4, 500 mg/kg of bismuth subnitrate dissolved in saline, or vehicle (saline) was intraperitoneally administered. After the rats were kept for 8 weeks from injury creation, histological evaluation and sensory function evaluation were performed for pathological conditions at the chronic stage of the spinal cord injury. In the same manner as in Example 4, for the section of the central part of the spinal cord of the rat, the reactive astrocyte area, the cavity area of the injured part, and the number of remaining neurons present on the lines 1.5 mm rostal and caudal from the center of the injury were measured.

[3] = system: spinal cord crush injury rats; experiment: Sensory function evaluation (pain stimulus response time) in spinal cord crush injury model; format: in vivo, Lewis rats; details: single i.p. dose 500 mg/kg immediately after C5 crush injury; vs vehicle; FIG. 13
Description: Crush injuries were created in the fifth cervical cord (C5) of Lewis rats (female, 8 to 14 weeks old, n=14 to 18/group) under anesthesia by applying a pressure of 200 kdyn using an IH impactor. For seven consecutive days from the day of injury creation, 380 to 420 μL of the test compound dissolved in saline or DMSO, or vehicle was intraperitoneally administered. The daily doses were 20 mg/kg body weight of papaverine, 1 mg/kg body weight of mubritinib, and 1 mg/kg body weight of brexpiprazole. After the rats were kept for 8 weeks from injury creation, histological evaluation and sensory function evaluation for pathological conditions at the chronic stage of the spinal cord injury were performed. […] Immediately after creating crush injuries in the fifth cervical cord (C5) of Lewis rats (female, 8 to 14 weeks old, n=8/group) under anesthesia in the same manner as in Example 4, 500 mg/kg of bismuth subnitrate dissolved in saline, or vehicle (saline) was intraperitoneally administered. After the rats were kept for 8 weeks from injury creation, histological evaluation and sensory function evaluation were performed for pathological conditions at the chronic stage of the spinal cord injury.

[4] = system: spinal cord crush injury rats; experiment: Walking function analysis (DigiGait) in spinal cord crush injury model; format: in vivo, Lewis rats; details: single i.p. dose 500 mg/kg, 8 weeks after injury
Description: Immediately after creating crush injuries in the fifth cervical cord (C5) of Lewis rats (female, 8 to 14 weeks old, n=8/group) under anesthesia in the same manner as in Example 4, 500 mg/kg of bismuth subnitrate dissolved in saline, or vehicle (saline) was intraperitoneally administered. After the rats were kept for 8 weeks from injury creation, histological evaluation and sensory function evaluation were performed for pathological conditions at the chronic stage of the spinal cord injury.
The ground contacting area (the Paw Area) of each leg and the maximum possible walking speed were measured in rats before and 8 weeks after spinal cord injury creation using the DigiGait walking analysis system for small animals (Bioresearch Center Co., Ltd.) according to the manual. […] All rats before spinal cord injury creation were able to walk at a treadmill speed of 20 cm/sec. In the vehicle-administered group, the number of rats that were able to walk at a speed of 15 cm/sec or faster decreased to two individuals, whereas in the bismuth subnitrate-administered group, 6 individuals were able to walk at a speed of 15 cm/sec or faster (FIG. 15).

[5] = system: cerebral cortex injury mice; experiment: IgG leakage in cerebral cortex injury model; format: in vivo, C57BL/6 mice; details: i.p. day before and on day of injury; bismuth subnitrate 500, papaverine 20 mg/kg; vs vehicle; FIG. 16
Description: Protection of the BBSCB function in traumatic brain injury by papaverine, mubritinib, brexpiprazole, and bismuth subnitrate was evaluated by observing suppression of IgG leakage from the injured site using the following method. C57BL/6 mice (male, 8 to 13 weeks old, n=3 to 4/group) were intraperitoneally administered 200 μL of the test compound dissolved in saline or DMSO, or vehicle. The doses were 20 mg/kg body weight of papaverine, 1 mg/kg body weight of mubritinib, 1 mg/kg body weight of brexpiprazole, and 500 mg/kg body weight of bismuth subnitrate. On the next day after administration, injuries were created in the left cerebral hemisphere cortex of the mice under anesthesia by a wire-knife transection method. The mice were immobilized in a stereotaxic frame, and the left lateral 1 mm portion from the bregma of the cranial bone was opened with a microdrill. A wire-knife was inserted into the lateral 1.0 mm from the bregma and 0.5 mm deep in the left cerebral hemisphere, and the wire was extended caudally and pulled up to create the injury. […] For evaluation of the IgG-stained area, taken images were binarized into black and white using Photoshop CS3 (Adobe, CA, USA), and then quantified using Image J (Schneider et al., 2012). […] All quantitative evaluations were performed with the slides blinded. […]

[6] = i.p. daily for 7 days from C5 crush injury, papaverine 20, mubritinib 1, brexpiprazole 1 mg/kg

Compound	cell protective effect on hCMEC/D3 (cell viability) compared with zinc sulfate [1]	leakage of IgG from the injured site of the cerebral cortex [5]	reactive astrocyte area (GFAP positive area) [2, 6]	other results
O=C([O-])CC(O)(CC(=O)[O-])C(=O)[O-].O=C([O-])CC(O)(CC(=O)[O-])C(=O)[O-].[Bi+3].[K+].[K+].[K+] [Bismuth subcitrate, bismuth subcitrate]	significantly higher			
O=[N+]([O-])[O-].O=[N+]([O-])[O-].O=[N+]([O-])[O-].O=[N+]([O-])[O-].[Bi+3].[Bi+3].[Bi+3].[Bi+3].[Bi+3].[O-2].[OH-].[OH-].[OH-].[OH-].[OH-].[OH-].[OH-].[OH-].[OH-] [bismuth subnitrate]	significantly higher	significantly suppressed		cavity area of the injured part ([2]; single i.p. dose 500 mg/kg immediately after C5 crush injury, FIG. 11): significantly reduced; number of remaining neurons, rostral side and caudal side of the injured part ([2]; single i.p. dose 500 mg/kg immediately after C5 crush injury, FIG. 12): increased both on the rostral side and the caudal side; response time of the forelimbs to pain stimulus [3]: significantly longer; number of rats able to walk at a speed of 15 cm/sec or faster ([4]; n=8/group, vehicle group two individuals, FIG. 15): 6 individuals; ground contacting area (the Paw Area) on one side ([4]; vs vehicle, FIG. 14): significantly increased
O=c1ccc2ccc(OCCCCN3CCN(c4cccc5sccc45)CC3)cc2[nH]1 [brexpiprazole, 7-[4-[4-(1-benzothiophen-4-yl)piperazin-1-yl]butoxy]-1H-quinolin-2-one]			significantly reduced	
COc1ccc(Cc2nccc3cc(OC)c(OC)cc23)cc1OC [papaverine, 1-[(3,4-dimethoxyphenyl)methyl]-6,7-dimethoxyisoquinoline]		significantly suppressed	significantly reduced	cavity area of the injured part ([2]; i.p. daily for 7 days from C5 crush injury, papaverine 20, mubritinib 1, brexpiprazole 1 mg/kg, FIG. 7): significantly reduced; number of remaining neurons (NeuN-positive cells) ([2]; i.p. daily for 7 days from C5 crush injury, papaverine 20, mubritinib 1, brexpiprazole 1 mg/kg, FIG. 8): significantly increased
bismuth tartrate	significantly higher			
